Patent US20030203975A1, “Anti-cancer agents” (priority 1998, published 2003)
Counter-ions that a name gives are not always drawn. One block for each compound: values may come before it.

Key:
[1] = tested on: MAC 15A adenocarcinoma of the colon; assay: In vitro chemosensitivity against MAC 15A adenocarcinoma (MTT assay); type: cell-based; details: 96 hours continuous exposure
Description: In Vitro Activity Against MAC 15A Adenocarcinoma.
MAC 15A cells were grown in RPMI 1640 medium supplemented with 10% foetal calf serum containing a 1% antibiotic mixture under standard tissue culture conditions and were maintained at 37° C. in a humidified atmosphere of 5% CO2 in air. Cells were harvested from a stock culture in exponential growth phase and plated in 96-well flat-bottomed plates to achieve a final density of 2×10^3 cells per well. After 2 hours incubation medium was replaced with either fresh medium containing 0.5% DMSO (control) or medium containing test compound dissolved in DMSO at a concentrations from 10 mM to 1 nM. Chemosensitivity was assessed using MTT assay by the method of Plumb et al Cancer Research 49 (1989) 4435-4440.
Following 96 hours continuous exposure to drug at 37° C. cells were incubated with fresh drug-free medium immediately prior to addition of MTT solution (5 mg/ml). Medium and MTT were removed after 4 hours and 150 μl of DMSO was added. For each plate the absorbance of the resulting solution was measured at the analytical wavelength 550 nm for formazan product, using a Labsystem Mutiskan. IC50 values were obtained from growth curves of drug concentration against % survival and are expressed in μm.

melting point: 124 °C
Compound: CC(C)(C)OC(=O)NCC(=O)OCCCNc1ccc(O)c2c1C(=O)c1ccccc1C2=O

melting point: 152 °C
Compound: CC(C)(C)OC(=O)NCC(=O)OCCCNc1ccc(O)c2c1C(=O)c1c(O)cccc1C2=O

melting point: 60 °C
Compound: C[C@H](NC(=O)OC(C)(C)C)C(=O)OCCCNc1cccc2c1C(=O)c1ccccc1C2=O

melting point: 58 °C
Compound: C[C@@H](NC(=O)OC(C)(C)C)C(=O)OCCCNc1cccc2c1C(=O)c1ccccc1C2=O

melting point: 121 °C
Compound: CC(C)(C)OC(=O)N1CCC[C@H]1C(=O)OCCCNc1cccc2c1C(=O)c1ccccc1C2=O

melting point: 58 °C
Compound: CC[C@H](NC(=O)OC(C)(C)C)C(=O)OCCCCNc1cccc2c1C(=O)c1ccccc1C2=O

IC50 ([1]; Mus musculus, MAC15A): 7.5 µM
Compound: C[C@H](N)C(=O)OCCNc1cccc2c1C(=O)c1ccccc1C2=O [Example 23, 1-[2-(L-alanyloxy)ethylamino]anthracene-9,10-dione trifluoroacetate]

IC50 ([1]; Mus musculus, MAC15A): 30 µM
Compound: CC(C)[C@H](N)C(=O)OCCNc1cccc2c1C(=O)c1ccccc1C2=O [Example 25, 1-[2-(L-valyloxy)ethylamino]anthracene-9,10-dione trifluoroacetate]

IC50 ([1]; Mus musculus, MAC15A): 14 µM
Compound: CC(C)[C@@H](N)C(=O)OCCNc1cccc2c1C(=O)c1ccccc1C2=O [Example 27, 1-[2-(D-valyloxy)ethylamino]anthracene-9,10-dione trifluoroacetate]

IC50 ([1]; Mus musculus, MAC15A): 3 µM
Compound: N[C@@H](Cc1ccccc1)C(=O)OCCCNc1cccc2c1C(=O)c1ccccc1C2=O [Example 39, 1-[3-(L-phenylalanyloxy)propylamino]anthracene-9,10-dione trifluoro-acetate]

Compound: CC(C)[C@H](N)C(=O)OCCCNc1ccc(O)c2c1C(=O)c1ccccc1C2=O [Example 51, 4-hydroxy-1-[3-(L-valyloxy)propylamino]anthracene-9,10-dione tri-fluoroacetate]
IC50 ([1]; Mus musculus, MAC15A, 96 h): 4.9 µM

Compound: N[C@@H](CCCNC(=O)OCc1ccccc1)C(=O)OCCCNc1cccc2c1C(=O)c1ccccc1C2=O [Example 71, 1-[3-(N-δ-benzyloxycarbonyl-L-ornithyloxy)propylaminol]anthracene-9,10-dione trifluoroacetate]
IC50 [1]: 2.4 µM

IC50 ([1]; Mus musculus, MAC15A): 5 µM
Compound: N[C@H](C(=O)OCCCNc1cccc2c1C(=O)c1ccccc1C2=O)c1ccccc1 [Example 73, 1-[3-(L-phenylglycyloxy)propylamino]anthracene-9,10dione trifluoro-acetate]

IC50 ([1]; Mus musculus, MAC15A): 4.2 µM
Compound: N[C@@H](C(=O)OCCCNc1cccc2c1C(=O)c1ccccc1C2=O)c1ccccc1 [Example 75, 1-[3-(D-phenylglycyloxy)propylamino]anthracene-9, 10dione trifluoro-acetate]

Compound: N[C@@H](Cc1c[nH]c2ccccc12)C(=O)OCCCCCONc1cccc2c1C(=O)c1ccccc1C2=O [Example 77, 1-[5-(L-tryptophyloxy)pentoxyamino]anthracene-9,10-dione trifluoro-acetate]
IC50 ([1]; Mus musculus, MAC15A): 5.5 µM

Compound: COc1ccc(C[C@H](N)C(=O)OCCCNc2cccc3c2C(=O)c2ccccc2C3=O)cc1 [Example 79, 1-[3-(O-methyl-L-tyrosyloxy)propylamino]anthracene-9,10dione tri-fluoroacetate]
IC50 ([1]; Mus musculus, MAC15A, 96 h): 3.5 µM

IC50 ([1]; Mus musculus, MAC15A): 9.4 µM
Compound: NCC(=O)OCCCCNc1cccc2c1C(=O)c1ccccc1C2=O [Example 81, 1-[4-(glycyloxy)butylamino]anthracene-9,10-dione trifluoroacetate]

Compound: CN[C@@H](C)C(=O)OCCCCNc1cccc2c1C(=O)c1ccccc1C2=O [Example 85, 1-[4-(methylalanyloxy)butylamino]anthracene-9,10-dione trifluoro-acetate]
IC50 ([1]; Mus musculus, MAC15A): 3.2 µM

IC50 ([1]; Mus musculus, MAC15A): 4.5 µM
Compound: CCCC(=O)OCCCCNc1cccc2c1C(=O)c1ccccc1C2=O [Example 89, 1-[4-(butanoyloxy)butylamino]anthracene-9,10-dione trifluoroacetate]

Compound: C[C@H](N)C(=O)OCCCCCNc1cccc2c1C(=O)c1ccccc1C2=O [Example 93, 1-[5-(L-alanyloxy)pentylamino]anthracene-9,10-dione trifluoroacetate]
IC50 ([1]; Mus musculus, MAC15A): 3.5 µM

Compound: C[C@@H](N)C(=O)OCCCCCNc1cccc2c1C(=O)c1ccccc1C2=O [Example 95, 1-[5-(D-alanyloxy)pentylamino]anthracene-9,10-dione trifluoroacetate]
IC50 ([1]; Mus musculus, MAC15A): 3.1 µM

Compound: CC(C)(COC(=O)CN)Nc1cccc2c1C(=O)c1ccccc1C2=O [Example 97, 2-[(9,10-dioxoanthryl)amino]-2-methylpropyl 2-aminoacetate trifluoro-acetate]
IC50 [1]: 15 µM

Compound: C[C@H](N)C(=O)OCC(C)(C)Nc1cccc2c1C(=O)c1ccccc1C2=O [Example 99, 2-[(9,10-dioxoanthryl)amino]-2-methylpropyl (2S)-2-amino propanoate trifluoroacetate]
IC50 [1]: 35 µM

Compound: C[C@H](N)C(=O)OCCc1ccc(Nc2cccc3c2C(=O)c2ccccc2C3=O)cc1 [Example 103]
IC50 [1]: 4.7 µM

Compound: C[C@@H](N)C(=O)OCCc1ccc(Nc2cccc3c2C(=O)c2ccccc2C3=O)cc1 [Example 105]
IC50 [1]: 3.4 µM

Compound: NCC(=O)OCCN1CCN(c2cccc3c2C(=O)c2ccccc2C3=O)CC1 [Example 107, 2-[4-(9,10-dioxoanthryl)piperazinyl]ethyl 2-aminoacetate bis-trifluoroacetate]
IC50 [1]: 24 µM

Compound: C[C@H](N)C(=O)OCCOCCNc1cccc2c1C(=O)c1ccccc1C2=O [Example 109, 1-[2-(2-{L-alanyloxy}ethoxy)ethylamino]anthracene-9,10-dione tri-fluoroacetate]
IC50 ([1]; Mus musculus, MAC15A, 96 h): 11.5 µM

Compound: C[C@@H](N)C(=O)OCCOCCNc1cccc2c1C(=O)c1ccccc1C2=O [Example 111, 1-[2-(2-{D-alanyloxy}ethoxy)ethylamino]anthracene-9,10-dione tri-fluoroacetate]
IC50 ([1]; Mus musculus, MAC15A, 96 h): 24 µM

IC50 ([1]; Mus musculus, MAC15A): 7 µM
Compound: N[C@@H](Cc1ccccc1)C(=O)OCCOCCNc1cccc2c1C(=O)c1ccccc1C2=O [Example 113, 1-[2-(2-{L-phenylalanyloxy}ethoxy)ethylamino]anthracene-9,10-dione trifluoroacetate]

IC50 ([1]; Mus musculus, MAC15A): 12 µM
Compound: N[C@H](Cc1ccccc1)C(=O)OCCOCCNc1cccc2c1C(=O)c1ccccc1C2=O [Example 115, 1-{2-(2-[D-phenylalanyloxy]ethoxy)ethylamino}anthracene-9,10-dione trifluoroacetate]

Compound: C[C@H](N)C(=O)OC1CCN(c2cccc3c2C(=O)c2ccccc2C3=O)CC1 [Example 117, 1-(9,10-dioxoanthryl)-4-piperidyl-(2S)-2-aminopropanoate trifluoro-acetate]
IC50 [1]: 14 µM

Compound: C[C@H](N)C(=O)OC[C@@H]1CCCN1c1cccc2c1C(=O)c1ccccc1C2=O [Example 121, [(2S)-1-(9,10-dioxoanthryl)pyrrolidin-2-yl]methyl (2S)-2-amino-propanoate trifluoroacetate]
IC50 [1]: 22 µM

IC50 ([1]; Mus musculus, MAC15A): 4 µM
Compound: NCC(=O)NCC(=O)OCCCNc1cccc2c1C(=O)c1ccccc1C2=O [Example 129, 1-[3-(glycylglycyloxy)propylamino]anthracene-9,10-dione trifluoro-acetate]

Compound: NCC(=O)N1CCC[C@H]1C(=O)OC[C@H](Cc1ccccc1)Nc1ccc(O)c2c1C(=O)c1c(O)cccc1C2=O [Example 135, (2S)-2-[(4,8-dihydroxy-9,10-dioxoanthryl)amino]-3-phenylpropyl (2S) -1-(2-aminoacetyl)pyrrolidine-2-carboxylate trifluoroacetate]
IC50 [1]: 2.5 µM

Compound: (2S)-2-[(9,10-dioxoanthryl)amino]propyl (2S)-2-propanoate trifluoroacetate [Example 119]
IC50 [1]: 5.5 µM
